Source: US20250296961A1, “ANTIMICROBIAL PEPTIDES FOR REMINERALIZATION OF TEETH AND PREVENTION OF DENTAL CARIES” (The University of Hong Kong, priority 2021, published 2025)
Non-standard residues stand in square brackets, D forms with d. No end group written: not given here. pS = N[C@@H](COP(=O)(O)O)C(=O)O

Key:
Assay in all cases: Anti-planktonic bacterial ability, MBC (Example 2)
S. mutans = assay type: cell-based, S. mutans (ATCC 35668)
Procedure: (§1) S. mutans (ATCC 35668, ATCC, Manassas, USA), S. gordonii (ATCC 35105, ATCC, Manassas, USA), and S. sanguinis (ATCC 10556, ATCC, Manassas, USA) strains were cultured in brain-heart infusion broth (BHI, Difco Laboratories, Detroit, USA) at 37° C. under anaerobic conditions (85% N2, 10% H2, and 5% CO2). Bacteria were harvested by centrifugation (5000 rpm, 10 min), washed once with sodium phosphate-buffered saline (PBS, 10 mM, pH=7.2), and resuspended in BHI at a concentration of 1×10^6 CFU mL^−1.
(§2) Each well was seeded with 10 μL S. mutans suspension, S. gordonii suspension, and S. sanguinis suspension, respectively. […] The bacterial growth was assessed by measuring the absorbance at 595 nm using a microplate reader after a 24-hour incubation. Subsequently, 10 μL of bacterial suspension from each well were plated on horse blood agar plates and incubated at 37° C. for 48 h. The antibacterial activities of AMPs were evaluated.

S. gordonii = assay type: cell-based, S. gordonii (ATCC 35105)
Procedure: as §1, §2

S. sanguinis = assay type: cell-based, S. sanguinis (ATCC 10556)
Procedure: as §1, §2

Row | Substance | MBC, S. mutans (S. mutans) [μM mL^−1] | MBC, S. gordonii (S. gordonii) [μM mL^−1] | MBC, S. sanguinis (S. sanguinis) [μM mL^−1]
1 | DSSDSSDSSDSSDSSDSSDSSDSSAKRHHGYKRKFH [Peptide 8DSS-P-113] | >64 | 64 | 64
2 | TFFRLFNRAKRHHGYKRKFHDSSDSSDSSDSSDSSDSSDSSDSS (not fully specified) [C8-P-113-8DSS] | 64 | >64 | >64
3 | AKRHHGYKRKFHDSSDSSDSSDSSDSSDSSDSSDSS [Peptide P-113-8DSS] | >64 | >64 | >64
4 | SpSpAKRHHGYKRKFH ([pS][pS]AKRHHGYKRKFH) [DPS-P-113] | 64 | >64 | >64
